Results from patent publication US12509454B2, “Thiadiazolyl derivatives” (IDEAYA Biosciences, Inc., priority 2019, dated 2025).

Target: Pol theta (1-899) (Homo sapiens (Human), UniProt O75417)
Experiment: Pol theta ATPase activity, NADH oxidation-coupled enzymatic assay
Format: biochemical
Details: Pol theta (1-899) 10 nM, ATP, dT50 ssDNA, absorbance 340 nm, 10-point dilution series; read-out: ATPase NADH coupling:Standard Screening:hPolQ IC50
Outline: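 Pol theta (1-899), 10 nM, preincubated 15 min at RT with 10-point compound series in Tris pH 7.80/KCl/MgCl2 buffer, then given 100 μM ATP plus 300 nM dT50 ssDNA with PK/LDH-coupled NADH oxidation. A340 followed for 30 min; rate slopes fitted with a four-parameter model for IC50.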

Chain of Pol theta (1-899) (O75417 1-899): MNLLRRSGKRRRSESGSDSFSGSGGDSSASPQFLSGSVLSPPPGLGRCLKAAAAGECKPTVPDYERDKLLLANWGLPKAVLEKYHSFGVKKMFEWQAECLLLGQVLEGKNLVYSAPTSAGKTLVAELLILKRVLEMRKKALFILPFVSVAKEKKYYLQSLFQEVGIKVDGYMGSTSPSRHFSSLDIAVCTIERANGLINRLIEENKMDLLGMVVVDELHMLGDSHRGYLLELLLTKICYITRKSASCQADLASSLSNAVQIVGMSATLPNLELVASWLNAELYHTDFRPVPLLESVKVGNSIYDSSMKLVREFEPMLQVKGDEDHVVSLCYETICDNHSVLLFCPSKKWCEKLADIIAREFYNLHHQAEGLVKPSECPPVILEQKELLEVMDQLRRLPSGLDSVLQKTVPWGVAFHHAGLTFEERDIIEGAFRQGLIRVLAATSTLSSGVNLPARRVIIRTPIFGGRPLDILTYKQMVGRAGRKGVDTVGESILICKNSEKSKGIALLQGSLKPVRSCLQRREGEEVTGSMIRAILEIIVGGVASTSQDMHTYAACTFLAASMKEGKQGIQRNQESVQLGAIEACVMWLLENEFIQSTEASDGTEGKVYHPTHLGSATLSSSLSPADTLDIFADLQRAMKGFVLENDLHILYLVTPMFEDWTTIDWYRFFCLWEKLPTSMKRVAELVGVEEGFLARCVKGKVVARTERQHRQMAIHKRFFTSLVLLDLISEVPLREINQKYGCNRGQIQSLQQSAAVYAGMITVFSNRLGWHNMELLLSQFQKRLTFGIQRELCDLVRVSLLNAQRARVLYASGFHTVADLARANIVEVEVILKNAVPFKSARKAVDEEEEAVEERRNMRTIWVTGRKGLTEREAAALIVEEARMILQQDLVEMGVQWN

Structure (SMILES) | IC50 [nM]
COc1cccc(F)c1-c1cc(C)ncc1C(=O)Nc1nnc(OCc2ccc(C3(C#N)CC3)cn2)s1 [Example 217, N-(5-((5-(1-cyanocyclopropyl)pyridin-2-yl)methoxy)-1,3,4-thiadiazol-2-yl)-4-(2-fluoro-6-methoxyphenyl)-6-methylnicotinamide] | ≤ 200
COc1cccc(F)c1-c1cc(C#N)ncc1C(=O)Nc1nnc(OCc2ccc(Cl)cn2)s1 [Example 186, N-(5-((5-chloropyridin-2-yl)methoxy)-1,3,4-thiadiazol-2-yl)-6-cyano-4-(2-fluoro-6-methoxyphenyl)nicotinamide] | ≤ 200
O=C(Nc1nnc(OCc2ccc(Cl)cc2)s1)c1cccnc1-c1ccccc1 [Example 94, N-(5-((4-chlorobenzyl)oxy)-1,3,4-thiadiazol-2-yl)-2-phenylnicotinamide] | 1000 to 10000
O=C(Nc1nnc(OCc2ccc(C3CC3)cc2)s1)c1cccnc1N1CCOCC1 [Example 47, N-(5-((4-cyclopropylbenzyl)oxy)-1,3,4-thiadiazol-2-yl)-2-morpholinonicotinamide] | 200 to 500
O=C(Nc1nnc(OCc2ccc(Br)cc2)s1)c1cccnc1N1CCOCC1 [Example 40, N-(5-((4-bromobenzyl)oxy)-1,3,4-thiadiazol-2-yl)-2-morpholinonicotinamide] | 200 to 500
COc1ccccc1-c1cc(CO)ncc1C(=O)Nc1nnc(OCc2ccc(Cl)cn2)s1 [Example 170, N-[5-[(5-chloropyridin-2-yl)methoxy]-1,3,4-thiadiazol-2-yl]-6-(hydroxymethyl)-4-(2-methoxyphenyl)pyridine-3-carboxamide] | ≤ 200
O=C(Nc1nnc(OCc2ccc(Cl)cc2)s1)c1cccnc1N1CCN2C(=O)CCC2C1 (racemic) [Example 57, (R) N-(5-((4-chlorobenzyl)oxy)-1,3,4-thiadiazol-2-yl)-2-(6-oxohexahydropyrrolo[1,2-a]pyrazin-2(1H)-yl)nicotinamide and (S) N-(5-((4-chlorobenzyl)oxy)-1,3,4-thiadiazol-2-yl)-2-(6-oxohexahydropyrrolo[1,2-a]pyrazin-2(1H)-yl)nicotinamide] | 500 to 1000
Cc1cc(-c2ccccc2OC(F)F)c(C(=O)Nc2nnc(OCc3ccc(Cl)cn3)s2)cn1 [Example 115, N-[5-[(5-chloropyridin-2-yl)methoxy]-1,3,4-thiadiazol-2-yl]-4-[2-(difluoromethoxy)phenyl]-6-methylpyridine-3-carboxamide] | ≤ 200
CC1CN(c2ncccc2C(=O)Nc2nnc(OCc3ccc(Cl)cc3)s2)CC(=O)N1 (racemic) [Example 46, (R) N-(5-((4-chlorobenzyl)oxy)-1,3,4-thiadiazol-2-yl)-2-(3-methyl-5-oxopiperazin-1-yl)nicotinamide and (S) N-(5-((4-chlorobenzyl)oxy)-1,3,4-thiadiazol-2-yl)-2-(3-methyl-5-oxopiperazin-1-yl)nicotinamide] | 200 to 500
COc1ccccc1-c1cnccc1C(=O)Nc1nnc(OCc2cccc3[nH]cnc23)s1 [Example 145, N-[5-(1H-1,3-benzodiazol-4-ylmethoxy)-1,3,4-thiadiazol-2-yl]-3-(2-methoxyphenyl)pyridine-4-carboxamide] | ≤ 200
COc1ccccc1-c1cnccc1C(=O)Nc1nnc(OCc2ccccc2)s1 [Example 174, N-(5-(benzyloxy)-1,3,4-thiadiazol-2-yl)-3-(2-methoxyphenyl)isonicotinamide] | ≤ 200
O=C(Nc1nnc(OCc2ccc(Cl)cn2)s1)c1cnnn1-c1ccccc1 [Example 25, N-(5-((5-chloropyridin-2-yl)methoxy)-1,3,4-thiadiazol-2-yl)-1-phenyl-1H-1,2,3-triazole-5-carboxamide] | 1000 to 10000
COc1ccccc1-c1ccncc1C(=O)Nc1nnc(OCc2ccc(Cl)cc2)s1 [Example 77, N-[5-[(4-chlorophenyl)methoxy]-1,3,4-thiadiazol-2-yl]-4-(2-methoxyphenyl)pyridine-3-carboxamide] | ≤ 200
COc1ccccc1-c1cnccc1C(=O)Nc1nnc(OCc2ccc(C3CC3)nc2)s1 [Example 101, N-[5-[(6-cyclopropylpyridin-3-yl)methoxy]-1,3,4-thiadiazol-2-yl]-3-(2-methoxyphenyl)pyridine-4-carboxamide] | ≤ 200
COc1c(C#N)cccc1-c1cnccc1C(=O)Nc1nnc(OCc2ccc(Cl)cc2)s1 [Example 159, N-(5-((4-chlorobenzyl)oxy)-1,3,4-thiadiazol-2-yl)-3-(3-cyano-2-methoxyphenyl)isonicotinamide] | ≤ 200
COc1ccccc1-c1c(C(=O)Nc2nnc(OCc3ccc(Cl)cn3)s2)cnc(C)c1F [Example 215, N-(5-((5-chloropyridin-2-yl)methoxy)-1,3,4-thiadiazol-2-yl)-5-fluoro-4-(2-methoxyphenyl)-6-methylnicotinamide] | ≤ 200
COc1ccc(-n2cncc2C(=O)Nc2nnc(OCc3ccc(Cl)cc3)s2)cc1 [Example 12, N-(5-((4-chlorobenzyl)oxy)-1,3,4-thiadiazol-2-yl)-1-(4-methoxyphenyl)-1H-imidazole-5-carboxamide] | 200 to 500

Structure (SMILES) | IC50 [nM]
NC(=O)c1ccc(C(=O)Nc2nnc(OCc3ccc(Cl)cc3)s2)c(N2CCOCC2)n1 [Example 21, N^5-(5-((4-chlorobenzyl)oxy)-1,3,4-thiadiazol-2-yl)-6-morpholinopyridine-2,5-dicarboxamide] | 1000 to 10000
O=C(Nc1nnc(OCc2ccc(Cl)cc2)s1)c1cncn1-c1ccccc1Cl [Example 42, N-(5-((4-chlorobenzyl)oxy)-1,3,4-thiadiazol-2-yl)-1-(2-chlorophenyl)-1H-imidazole-5-carboxamide] | ≤ 200
COc1ccccc1-c1cc(C)ncc1C(=O)Nc1nnc(O[C@@H](C)c2ccc(Cl)cc2)s1 [Example 202, N-[5-[(1S)-1-(4-chlorophenyl)ethoxy]-1,3,4-thiadiazol-2-yl]-4-(2-methoxyphenyl)-6-methylpyridine-3-carboxamide] | ≤ 200
O=C(Nc1nnc(OCc2ccc(Cl)cc2)s1)c1ccncc1-c1cccc2ncoc12 [Example 111, 3-(benzo[d]oxazol-7-yl)-N-(5-((4-chlorobenzyl)oxy)-1,3,4-thiadiazol-2-yl)isonicotinamide] | ≤ 200
O=C(Nc1nnc(OCc2ccc(Cl)cc2)s1)c1ccncc1-c1ccccc1OC(F)F [Example 100, N-(5-((4-chlorobenzyl)oxy)-1,3,4-thiadiazol-2-yl)-3-(2-(difluoromethoxy)phenyl)isonicotinamide] | ≤ 200
CN(C)C(=O)c1cc(N2CCOCC2)c(C(=O)Nc2nnc(OCc3ccc(Cl)cc3)s2)cn1 [Example 73, N^5-(5-((4-chlorobenzyl)oxy)-1,3,4-thiadiazol-2-yl)-N2,N2-dimethyl-4-morpholinopyridine-2,5-dicarboxamide] | 1000 to 10000
O=C1COc2c(cccc2-c2cnccc2C(=O)Nc2nnc(OCc3ccc(Cl)cc3)s2)N1 [Example 120, N-(5-((4-chlorobenzyl)oxy)-1,3,4-thiadiazol-2-yl)-3-(3-oxo-3,4-dihydro-2H-benzo[b][1,4]oxazin-8-yl)isonicotinamide] | ≤ 200
O=C(Nc1nnc(OCc2ccc(Cl)cc2)s1)c1ccncc1[C@@]12CCOC[C@@H]1C2 (mixture of isomers) [Example 175, 3-((1R,6S)-3-oxabicyclo[4.1.0]heptan-6-yl)-N-(5-((4-chlorobenzyl)oxy)-1,3,4-thiadiazol-2-yl)isonicotinamide and 3-((1S,6R)-3-oxabicyclo[4.1.0]heptan-6-yl)-N-(5-((4-chlorobenzyl)oxy)-1,3,4-thiadiazol-2-yl)isonicotinamide] | ≤ 200
COc1ccccc1-c1cc(C)ncc1C(=O)Nc1nnc(OCc2ccc(Cl)cc2)s1 [Example 138, N-[5-[(4-chlorophenyl)methoxy]-1,3,4-thiadiazol-2-yl]-4-(2-methoxyphenyl)-6-methylpyridine-3-carboxamide] | ≤ 200
O=C(Nc1nnc(OCc2ccc(Cl)cc2)s1)c1ccncc1-c1ccccc1OC1CC(O)C1 (stereo not drawn) [Example 165, N-(5-((4-chlorobenzyl)oxy)-1,3,4-thiadiazol-2-yl)-3-(2-(3-hydroxycyclobutoxy)phenyl)isonicotinamide] | ≤ 200
N#Cc1ccccc1-n1cncc1C(=O)Nc1nnc(OCc2ccc(Cl)cc2)s1 [Example 43, N-(5-((4-chlorobenzyl)oxy)-1,3,4-thiadiazol-2-yl)-1-(2-cyanophenyl)-1H-imidazole-5-carboxamide] | 200 to 500
O=C(Nc1nnc(OCc2ccc(Cl)cc2)s1)c1cc(C#CCO)ncc1-c1ccccc1OC(F)F [Example 147, N-[5-[(4-chlorophenyl)methoxy]-1,3,4-thiadiazol-2-yl]-5-[2-(difluoromethoxy)phenyl]-2-(3-hydroxyprop-1-yn-1-yl)pyridine-4-carboxamide] | ≤ 200
Cc1cc(-c2ccccc2CO)c(C(=O)Nc2nnc(OCc3ccc(Cl)cn3)s2)cn1 [Example 203, N-[5-[(5-chloropyridin-2-yl)methoxy]-1,3,4-thiadiazol-2-yl]-4-[2-(hydroxymethyl)phenyl]-6-methylpyridine-3-carboxamide] | ≤ 200
COc1ccccc1-c1cnccc1C(=O)Nc1nnc(OCc2ccc(C3(C#N)CC3)cc2)s1 [Example 141, N-(5-[[4-(1-cyanocyclopropyl)phenyl]methoxy]-1,3,4-thiadiazol-2-yl)-3-(2-methoxyphenyl)pyridine-4-carboxamide] | ≤ 200
CC(=O)Nc1cc(N2CCOCC2)c(C(=O)Nc2nnc(OCc3ccc(Cl)cc3)s2)cn1 [Example 78, 6-acetamido-N-(5-((4-chlorobenzyl)oxy)-1,3,4-thiadiazol-2-yl)-4-morpholinonicotinamide] | 1000 to 10000
COc1ccccc1-c1cc(C)ncc1C(=O)Nc1nnc(OCc2cccc(F)n2)s1 [Example 211, N-[5-[(6-fluoropyridin-2-yl)methoxy]-1,3,4-thiadiazol-2-yl]-4-(2-methoxyphenyl)-6-methylpyridine-3-carboxamide] | ≤ 200
